Test results from ChEMBL document CHEMBL1127889 (Bioorg Med Chem Lett, 1994).

Assays:
[1] = target: T1, Endothelin-converting enzyme 1 (Bos taurus, UniProt P42891); assay: Inhibition of Endothelin-converting enzyme (ECE) from microsomal fractions of bovine cultured endothelial cells; assay type: cell-based, Endothelial cell
T1 sequence (P42891 whole entry): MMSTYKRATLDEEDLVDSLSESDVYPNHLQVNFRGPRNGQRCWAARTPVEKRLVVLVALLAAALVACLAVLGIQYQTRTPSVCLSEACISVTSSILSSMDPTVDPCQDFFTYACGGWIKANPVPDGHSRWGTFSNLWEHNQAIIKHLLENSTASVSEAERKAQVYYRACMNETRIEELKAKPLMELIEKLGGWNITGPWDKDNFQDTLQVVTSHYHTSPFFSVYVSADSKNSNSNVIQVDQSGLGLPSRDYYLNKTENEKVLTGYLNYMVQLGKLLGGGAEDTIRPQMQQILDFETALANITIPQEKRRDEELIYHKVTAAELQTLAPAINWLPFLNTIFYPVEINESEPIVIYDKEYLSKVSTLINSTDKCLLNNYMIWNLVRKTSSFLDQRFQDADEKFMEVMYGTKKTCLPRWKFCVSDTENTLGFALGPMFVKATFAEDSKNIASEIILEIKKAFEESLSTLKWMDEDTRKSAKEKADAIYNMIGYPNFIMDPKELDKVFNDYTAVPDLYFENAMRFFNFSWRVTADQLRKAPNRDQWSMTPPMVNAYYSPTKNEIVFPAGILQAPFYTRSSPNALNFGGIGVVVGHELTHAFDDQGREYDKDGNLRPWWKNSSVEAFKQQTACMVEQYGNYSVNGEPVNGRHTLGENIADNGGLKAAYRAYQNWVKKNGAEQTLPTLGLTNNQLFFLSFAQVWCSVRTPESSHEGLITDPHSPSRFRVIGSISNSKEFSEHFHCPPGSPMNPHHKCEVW

[2] = Selectivity ratio against ECE/NEP
[3] = target: T2, Endothelin-converting enzyme 1 (Bos taurus) (UniProt P42891); assay: Inhibitory activity against Endothelin-converting enzyme (ECE) prepared from the microsomal fractions of bovine cultured endothelial cells at a concentration of 100 uM; assay type: cell-based; conditions: Endothelial cell
T2 sequence (whole entry): T1 sequence (P42891 whole entry)

Neprilysin = target: T3, Neprilysin (Rattus norvegicus, UniProt P07861); assay: Inhibitory activity against neutral endopeptidase (NEP)prepared from microsomal fractions of rat small intestine
T3 sequence (P07861 whole entry): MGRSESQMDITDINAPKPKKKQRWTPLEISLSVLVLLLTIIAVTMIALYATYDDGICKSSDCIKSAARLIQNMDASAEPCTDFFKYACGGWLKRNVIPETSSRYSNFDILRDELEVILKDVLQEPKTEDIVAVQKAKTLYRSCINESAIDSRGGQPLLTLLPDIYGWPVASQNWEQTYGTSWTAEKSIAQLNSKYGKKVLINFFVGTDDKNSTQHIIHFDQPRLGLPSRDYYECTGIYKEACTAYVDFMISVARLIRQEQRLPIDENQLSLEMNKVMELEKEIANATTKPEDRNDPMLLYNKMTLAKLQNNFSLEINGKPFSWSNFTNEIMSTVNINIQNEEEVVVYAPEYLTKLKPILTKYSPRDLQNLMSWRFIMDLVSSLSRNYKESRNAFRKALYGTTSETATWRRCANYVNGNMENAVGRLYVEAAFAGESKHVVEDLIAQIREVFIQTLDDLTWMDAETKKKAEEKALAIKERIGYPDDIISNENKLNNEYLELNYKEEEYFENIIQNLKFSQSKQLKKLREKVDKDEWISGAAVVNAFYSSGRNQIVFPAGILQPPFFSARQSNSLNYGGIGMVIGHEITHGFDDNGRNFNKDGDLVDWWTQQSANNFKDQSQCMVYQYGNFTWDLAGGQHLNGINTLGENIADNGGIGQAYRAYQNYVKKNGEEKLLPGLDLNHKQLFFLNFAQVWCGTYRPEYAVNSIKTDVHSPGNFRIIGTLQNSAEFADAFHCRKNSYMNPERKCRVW

[4] = target: T2, Endothelin-converting enzyme 1 (Bos taurus); assay: Inhibitory activity against Endothelin converting enzyme (ECE) prepared from the microsomal fractions of bovine cultured endothelial cells at a concentration of 100 uM; assay type: cell-based; conditions: Endothelial cell

Structure (SMILES)	IC50 [1] [nM]	Ratio [2]	inhibition [3] [%]	IC50 (Neprilysin) [nM]	inhibition [4] [%]
CC(C)C[C@H](NP(=O)(O)O)C(=O)N[C@@H](Cc1c[nH]c2ccccc12)C(=O)O	960	–	–	–	–
CC(C)C[C@H](NC(CCc1ccccc1)P(=O)(O)O)C(=O)N[C@@H](Cc1c[nH]c2ccccc12)C(=O)O (stereo partly specified)	1100	120	33	130	–
CCCC(N[C@@H](CC(C)C)C(=O)N[C@@H](Cc1c[nH]c2ccccc12)C(=O)O)P(=O)(O)O (stereo partly specified)	15000	37	–	550	–
CC(C)C[C@H](NP(=O)(O)O)C(=O)N[C@@H](Cc1cccc2ccccc12)C(=O)O	7400	–	–	–	–
CC(C)C[C@H](NCP(=O)(O)O)C(=O)N[C@@H](Cc1c[nH]c2ccccc12)C(=O)O	3400	7.1	–	24	–
CC[C@@H](C)[C@H](NP(=O)(O)O)C(=O)N[C@@H](Cc1c[nH]c2ccccc12)C(=O)O	2800	–	–	–	–
CCCC[C@H](NP(=O)(O)O)C(=O)N[C@@H](Cc1c[nH]c2ccccc12)C(=O)O	1500	–	–	–	–
CC(C)C[C@H](NC(CCCc1ccccc1)P(=O)(O)O)C(=O)N[C@@H](Cc1c[nH]c2ccccc12)C(=O)O (stereo partly specified)	7100	150	38	1100	–
CC(C)C[C@H](NC(CCc1ccc(O)cc1)P(=O)(O)O)C(=O)N[C@@H](Cc1c[nH]c2ccccc12)C(=O)O (stereo partly specified)	3000	43	42	130	–
CC(C)C[C@H](NC(CCc1cccc2ccccc12)P(=O)(O)O)C(=O)N[C@@H](Cc1c[nH]c2ccccc12)C(=O)O (stereo partly specified)	260	540	–	140	31
CC(C)[C@H](NP(=O)(O)O)C(=O)N[C@@H](CC(N)=O)C(=O)O	–	–	14	–	–
CC(C)C[C@H](NC(CCc1c[nH]c2ccccc12)P(=O)(O)O)C(=O)N[C@@H](Cc1c[nH]c2ccccc12)C(=O)O (stereo partly specified)	1900	290	–	560	–
CC(C)C[C@H](NP(=O)(O)OC1O[C@@H](C)[C@H](O)[C@@H](O)[C@H]1O)C(=O)N[C@@H](Cc1c[nH]c2ccccc12)C(=O)O (single isomer, unassigned) [PHOSPHORAMIDON]	–	–	–	4.2	–
